Results reported in patent US12559474B2, “Triazine derivatives having virus replication inhibitory activity and pharmaceutical composition comprising the same” (priority 2021, dated 2026).
pIC50: −log10 of the molar value. Several values for one entry are separate records, joined by “and”; a condition that tells them apart may be missing. Identical values can stand only once.

These compounds were tested against SARS-CoV-2 3CL protease (Severe acute respiratory syndrome coronavirus 2, UniProt P0DTD1) (assay: biochemical). Conditions: IC50.

SMILES	pIC50
Cn1cnc(Cn2c(=O)nc(Nc3cc4cn([C@H]5CC[C@H](N)CC5)nc4cc3Cl)n(Cc3cc(Cl)c(F)cc3F)c2=O)n1 [II-0531]	> 7.00
NC(=O)c1cnc2[nH]c(=O)c(Cn3c(=O)nc(Nc4ccc5c(c4)CCO5)n(Cc4cc(F)c(F)c(F)c4)c3=O)cc2c1 [II-0317]	> 7.00
CNC(=O)c1cnc2[nH]c(=O)c(Cn3c(=O)nc(Nc4ccc5c(c4)CCO5)n(Cc4cc(F)c(F)c(F)c4)c3=O)cc2c1 [II-0314]	> 7.00
CN1CC[C@H](n2cc3cc(Nc4nc(=O)n(Cc5ncn(C)n5)c(=O)n4Cc4cc(F)c(F)c(Cl)c4)c(Cl)cc3n2)C1=O [II-0451]	> 7.00
COc1ccc(Nc2nc(=O)n(Cc3cn(-c4ccccc4)cn3)c(=O)n2Cc2cc(F)c(F)c(F)c2)cc1 [Compound I-0412]	5.29 and 5.00 to 6.00
CNc1nc2cc(Cl)c(Nc3nc(=O)n(Cc4ncn(C)n4)c(=O)n3Cc3cc(Cl)c(F)cn3)cc2s1 [II-0266]	> 7.00
Cc1cncc(-n2c(=O)nc(Nc3ccc(N=S4(=O)CCCC4)c(Cl)c3Cl)n(Cc3cc(Cl)ccc3C)c2=O)c1 [II-0617]	> 7.00
Cn1cc2cc(Nc3nc(=O)n(-c4cnc5ccccn45)c(=O)n3Cc3ccc(F)c(C#N)c3)c(Cl)cc2n1 [II-0488]	> 7.00
Cc1nc2cc(Cl)c(Nc3nc(=O)n(Cc4ccc[nH]c4=O)c(=O)n3Cc3cc(F)c(F)c(F)c3)cc2n1CC(C)(C)O [Compound I-0445]	> 7.00
Cc1nc2cc(Cl)c(Nc3nc(=O)n(Cc4ccc[nH]c4=O)c(=O)n3Cc3ccc(F)c(C#N)c3)cc2n1C [Compound I-0266]	> 7.00
COc1ccc(Nc2nc(=O)n(Cc3ccc[nH]c3=O)c(=O)n2Cc2cc(F)c(F)c(F)c2)c(O)c1 [Compound I-0056]	> 7.00
CN(C)C(=O)Cn1cc2cc(Nc3nc(=O)n(Cc4ccc[nH]c4=O)c(=O)n3Cc3cc(F)c(F)c(F)c3)c(Cl)cc2n1 [Compound I-0367]	> 7.00
Cc1cn2cc(Nc3nc(=O)n(Cc4ccc[nH]c4=O)c(=O)n3Cc3cc(F)c(F)c(F)c3)c(Cl)cc2n1 [Compound I-0441]	> 7.00
COc1ccc(Nc2nc(=O)n(Cc3cc(-c4cn(C)cn4)c[nH]c3=O)c(=O)n2Cc2cc(F)c(F)c(F)c2)cc1 [Compound I-0105]	> 7.00
CN(C)C(=O)Cn1cc2cc(Nc3nc(=O)n(Cc4ncn(C)n4)c(=O)n3Cc3cc(F)c(F)c(Cl)c3)c(Cl)cc2n1 [II-0277]	> 7.00
CNC(=O)c1c[nH]c(=O)c(Cn2c(=O)nc(Nc3cc4c(cc3Cl)OCC4)n(Cc3cc(F)c(F)c(F)c3)c2=O)c1 [Compound I-0478]	> 7.00
Cc1cc(C)nc(NC23CC(Nc4nc(=O)n(Cc5ccc[nH]c5=O)c(=O)n4Cc4cc(F)c(F)c(F)c4)(C2)C3)n1 [II-0627]	> 7.00
Cn1cnc2ccc(Nc3nc(=O)n(Cc4ccc[nH]c4=O)c(=O)n3Cc3cc(F)c(F)c(F)c3)cc21 [Compound I-0144]	> 7.00
O=c1[nH]cccc1Cn1c(=O)nc(NC2CC(F)(F)C2)n(Cc2cc(F)c(F)c(F)c2)c1=O [II-0231]	6.06
O=c1[nH]cccc1Cn1c(=O)nc(Nc2cc3nccnc3cc2Cl)n(Cc2cc(F)c(F)c(F)c2)c1=O [Compound I-0098]	> 7.00
COCCOc1ccc(Nc2nc(=O)n(Cc3ccc[nH]c3=O)c(=O)n2Cc2cc(F)c(F)c(F)c2)c(Cl)c1 [Compound I-0096]	> 7.00
Cc1cncc(-n2c(=O)nc(Nc3ccc(N=S4(=O)CCCC4)cc3C(F)(F)F)n(Cc3cc(Cl)ccc3C)c2=O)c1 [II-0614]	> 7.00

SMILES	pIC50
Cn1cc2cc(Nc3nc(=O)n(Cc4cc5[nH]cnc5cn4)c(=O)n3Cc3cc(F)c(F)cc3F)c(Cl)cc2n1 [II-0256]	6.80
COc1ccc(Nc2nc(=O)n(Cc3cc4ccncc4[nH]c3=O)c(=O)n2Cc2cc(F)c(F)c(F)c2)cc1 [Compound I-0080]	> 7.00
Cn1cc2cc(Nc3nc(=O)n(Cc4cc5ccsc5[nH]c4=O)c(=O)n3Cc3ccc(F)c(C#N)c3)ccc2n1 [II-0009]	> 7.00
CN(C)C(=O)CCn1cc2cc(Nc3nc(=O)n(Cc4ncn(C)n4)c(=O)n3Cc3cc(Cl)c(F)cc3F)c(Cl)cc2n1 [II-0338]	> 7.00
COc1ccc(Cc2nc(=O)n(Cc3ccc[nH]c3=O)c(=O)n2Cc2cc(F)c(F)c(F)c2)cc1 [II-0327]	5.82
O=C(O)COc1ccc(Nc2nc(=O)n(Cc3ccc[nH]c3=O)c(=O)n2Cc2cc(F)c(F)c(F)c2)c(Cl)c1 [Compound I-0464]	> 7.00
Cn1cc2cc(Nc3nc(=O)n(Cc4c[nH]c(=O)[nH]c4=O)c(=O)n3Cc3cc(F)c(F)c(F)c3)c(Cl)cc2n1 [Compound I-0405]	> 7.00
COCCn1c(C)nc2cc(Cl)c(Nc3nc(=O)n(Cc4ccc[nH]c4=O)c(=O)n3Cc3cc(F)c(F)c(F)c3)cc21 [Compound I-0443]	> 7.00
Cn1cnc(Cn2c(=O)nc(NC34CC(Nc5ncc(F)cn5)(C3)C4)n(Cc3cc(F)c(F)c(F)c3)c2=O)n1 [II-0473]	> 7.00
CN(C)C(=O)c1ccc(Cn2c(=O)nc(Nc3cc4cn(C)nc4cc3Cl)n(Cc3cc(F)c(F)c(F)c3)c2=O)c(=O)[nH]1 [Compound I-0063]	> 7.00
Cc1c[nH]nc1[C@@H]1C[C@H]1Nc1nc(=O)n(Cc2ccc[nH]c2=O)c(=O)n1Cc1cc(F)c(F)c(F)c1 (racemic) [II-0373]	6.37
Cc1nc2cc(Cl)c(Nc3nc(=O)n(Cc4ccc[nH]c4=O)c(=O)n3Cc3cc(F)c(F)c(C#N)c3)cc2n1C [Compound I-0010]	> 7.00
CNC(=O)c1c[nH]c(=O)c(Cn2c(=O)nc(Nc3ccc(OC)cc3)n(Cc3cc(F)c(F)c(F)c3)c2=O)c1 [Compound I-0087]	> 7.00
Cn1cnc(Cn2c(=O)nc(Nc3cc4cn(CC(=O)NC5CC5)nc4cc3Cl)n(Cc3cc(Cl)c(F)cc3F)c2=O)n1 [II-0148]	> 7.00
CNC(=O)c1c[nH]c(=O)c(Cn2c(=O)nc(Nc3cc4cn(C)nc4cc3Cl)n(Cc3cc(F)c(F)c(F)c3)c2=O)c1 [Compound I-0477]	> 7.00
Cc1cncc(-n2c(=O)nc(Nc3cc4cn([C@H]5CC[C@H](N)CC5)nc4cc3Cl)n(Cc3cc(Cl)ccc3Cl)c2=O)c1 [II-0628]	> 7.00
COc1ccc(Nc2nc(=O)n(Cc3ccc(C(=O)NCCN(C)C)[nH]c3=O)c(=O)n2Cc2cc(F)c(F)c(F)c2)cc1 [Compound I-0074]	> 7.00
CN(C)C(=O)c1cnc2[nH]c(=O)c(Cn3c(=O)nc(Nc4ccc5c(c4)CCO5)n(Cc4cc(F)c(F)c(F)c4)c3=O)cc2c1 [II-0315]	> 7.00
CO[C@H]1C[C@H](Nc2nc(=O)n(Cc3ccc[nH]c3=O)c(=O)n2Cc2cc(F)c(F)c(F)c2)C1 [Compound I-0207]	5.72 and 5.00 to 6.00
COc1ncc(Nc2nc(=O)n(-c3cncc(C)c3)c(=O)n2Cc2ccc(F)c(C#N)c2)c(C)n1 [II-0124]	5.48
CNC(=O)COc1ccc(Nc2nc(=O)n(Cc3ccc[nH]c3=O)c(=O)n2Cc2cc(F)c(F)c(F)c2)c(Cl)c1 [Compound I-0463]	> 7.00
COc1ccc(Nc2nc(=O)n(Cc3ccc[nH]c3=O)c(=O)n2C2CCc3cc(F)c(F)cc32)cc1 (racemic) [Compound I-0258]	5.46 and 5.00 to 6.00

SMILES	pIC50
COc1ccc(Nc2nc(=O)n(Cc3c[nH]ccc3=O)c(=O)n2Cc2cc(F)c(F)c(F)c2)cc1 [Compound I-0083]	5.74 and 5.00 to 6.00
Cc1cncc(-n2c(=O)nc(Nc3cc4sc(NS(C)(=O)=O)nc4cc3Cl)n(Cc3ccc(F)c(C#N)c3)c2=O)c1 [II-0427]	> 7.00
COC(=O)NC12CC(Nc3nc(=O)n(Cc4ccc[nH]c4=O)c(=O)n3Cc3cc(F)c(F)c(F)c3)(C1)C2 [II-0062]	> 7.00
O=c1[nH]cccc1Cn1c(=O)nc(Nc2ccc(O)cc2)n(Cc2cc(F)c(F)c(F)c2)c1=O [Compound I-0027]	> 7.00
Cn1cc2cc(Nc3nc(=O)n(Cc4nc[nH]n4)c(=O)n3Cc3cc(F)c(F)cc3F)c(Cl)cc2n1 [II-0091]	> 7.00
Cc1cncc(-n2c(=O)nc(Nc3ccc4[nH]ncc4c3)n(Cc3ccc(F)c(C#N)c3)c2=O)c1 [II-0206]	> 7.00
Cc1cncc(-n2c(=O)nc(Nc3ccc(N=S4(=O)CCCC4)cc3Cl)n(Cc3cc(Cl)ccc3C)c2=O)c1 [II-0624]	> 7.00
CC(=O)Nc1nc2cc(Cl)c(Nc3nc(=O)n(Cc4ncn(C)n4)c(=O)n3Cc3cc(F)c(F)c(F)c3)cc2s1 [II-0310]	> 7.00
COc1ccc(Nc2nc(=O)n(Cc3ncn(C)n3)c(=O)n2C2(c3ccc(F)c(F)c3)CC2)cc1 [II-0644]	5.46
Cn1cnc(Cn2c(=O)nc(Nc3cc4cn(C)nc4cc3Cl)n(Cc3cc(F)c(F)cc3C(F)(F)F)c2=O)n1 [II-0634]	> 7.00
CN1Cc2cc(Nc3nc(=O)n(Cc4ccc[nH]c4=O)c(=O)n3Cc3cc(F)c(F)c(F)c3)ccc2C1=O [Compound I-0438]	6.13 and 6.00 to 7.00
COc1ccc(Nc2nc(=O)n(Cc3c[nH]c(=S)[nH]c3=O)c(=O)n2Cc2cc(F)c(F)c(F)c2)cc1 [Compound I-0103]	> 7.00
COc1ccc(Nc2nc(=O)n(Cc3cc(C)[nH]n3)c(=O)n2Cc2cc(F)c(F)c(F)c2)cc1 [Compound I-0340]	6.08 and 6.00 to 7.00
Cc1cncc(-n2c(=O)nc(Nc3cc4cn(CCN)nc4cc3Cl)n(Cc3cc(Cl)ccc3Cl)c2=O)c1 [II-0611]	> 7.00
Cc1cncc(-n2c(=O)nc(Nc3ccc(N=S(C)(C)=O)cc3C)n(Cc3cc(Cl)ccc3C)c2=O)c1 [II-0631]	> 7.00
COc1cc(N=S(C)(C)=O)ccc1Nc1nc(=O)n(-c2cncc(C)c2)c(=O)n1Cc1cc(Cl)ccc1C [II-0633]	> 7.00
COc1cnc(NC23CC(Nc4nc(=O)n(Cc5ccc[nH]c5=O)c(=O)n4Cc4cc(F)c(F)c(F)c4)(C2)C3)nc1 [II-0441]	> 7.00
Cn1cnc(Cn2c(=O)nc(Nc3cc4cn(CC(=O)O)nc4cc3Cl)n(Cc3cc(Cl)c(F)cc3F)c2=O)n1 [II-0319]	> 7.00
COc1ccc(Nc2nc(=O)n(Cc3cc(C(N)=O)c[nH]c3=O)c(=O)n2Cc2cc(F)c(F)c(F)c2)cc1 [Compound I-0088]	> 7.00
Cc1cncc(-n2c(=O)nc(Nc3cc4cn(C)nc4cc3Cl)n(Cc3nc(Cl)c(Cl)n3C)c2=O)c1 [II-0021]	5.44
Cn1cnc(Cn2c(=O)nc(Nc3cc4cn(CC(F)F)nc4cc3F)n(Cc3ccc(F)c(C#N)c3)c2=O)n1 [II-0471]	> 7.00
Cn1cnc(Cn2c(=O)nc(Nc3cc4c(cc3Cl)nc3n4CCN3)n(Cc3cc(F)c(F)c(Cl)c3)c2=O)n1 [II-0411]	> 7.00
